One may read the IC50 as the concentration that gives 50% inhibition. Lower therefore signals greater potency in that assay.

Sequence of H1047R PIK3CA enzyme (P42336 whole entry H1047R): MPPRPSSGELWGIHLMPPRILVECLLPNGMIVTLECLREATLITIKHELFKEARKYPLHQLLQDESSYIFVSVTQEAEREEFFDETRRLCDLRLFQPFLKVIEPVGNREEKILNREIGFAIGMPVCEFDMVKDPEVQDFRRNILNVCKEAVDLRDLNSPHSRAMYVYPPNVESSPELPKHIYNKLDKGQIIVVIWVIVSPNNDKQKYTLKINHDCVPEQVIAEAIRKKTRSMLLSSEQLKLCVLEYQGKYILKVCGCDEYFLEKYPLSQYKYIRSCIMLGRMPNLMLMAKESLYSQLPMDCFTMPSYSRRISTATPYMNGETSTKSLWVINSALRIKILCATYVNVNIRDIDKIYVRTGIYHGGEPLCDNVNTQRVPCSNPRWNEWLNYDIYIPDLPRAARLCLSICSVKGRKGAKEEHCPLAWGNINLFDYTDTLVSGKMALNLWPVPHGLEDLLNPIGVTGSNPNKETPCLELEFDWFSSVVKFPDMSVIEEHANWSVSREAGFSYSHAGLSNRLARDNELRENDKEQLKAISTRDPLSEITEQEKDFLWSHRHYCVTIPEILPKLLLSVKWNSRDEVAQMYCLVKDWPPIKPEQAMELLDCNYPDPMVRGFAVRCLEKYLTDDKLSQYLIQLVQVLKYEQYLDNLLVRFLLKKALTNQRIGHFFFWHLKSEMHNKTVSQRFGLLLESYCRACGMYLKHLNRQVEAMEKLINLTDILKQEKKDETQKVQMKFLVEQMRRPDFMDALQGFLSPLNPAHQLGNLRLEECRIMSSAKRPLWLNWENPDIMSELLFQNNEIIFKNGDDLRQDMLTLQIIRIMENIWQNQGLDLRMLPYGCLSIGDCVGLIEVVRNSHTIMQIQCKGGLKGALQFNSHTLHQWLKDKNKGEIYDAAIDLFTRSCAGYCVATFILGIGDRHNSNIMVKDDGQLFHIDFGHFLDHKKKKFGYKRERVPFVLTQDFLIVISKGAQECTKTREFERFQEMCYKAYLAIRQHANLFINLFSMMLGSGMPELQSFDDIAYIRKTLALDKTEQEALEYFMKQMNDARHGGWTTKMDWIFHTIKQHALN
Sequence of H1047R PIK3CA enzyme (P27986 whole entry partner): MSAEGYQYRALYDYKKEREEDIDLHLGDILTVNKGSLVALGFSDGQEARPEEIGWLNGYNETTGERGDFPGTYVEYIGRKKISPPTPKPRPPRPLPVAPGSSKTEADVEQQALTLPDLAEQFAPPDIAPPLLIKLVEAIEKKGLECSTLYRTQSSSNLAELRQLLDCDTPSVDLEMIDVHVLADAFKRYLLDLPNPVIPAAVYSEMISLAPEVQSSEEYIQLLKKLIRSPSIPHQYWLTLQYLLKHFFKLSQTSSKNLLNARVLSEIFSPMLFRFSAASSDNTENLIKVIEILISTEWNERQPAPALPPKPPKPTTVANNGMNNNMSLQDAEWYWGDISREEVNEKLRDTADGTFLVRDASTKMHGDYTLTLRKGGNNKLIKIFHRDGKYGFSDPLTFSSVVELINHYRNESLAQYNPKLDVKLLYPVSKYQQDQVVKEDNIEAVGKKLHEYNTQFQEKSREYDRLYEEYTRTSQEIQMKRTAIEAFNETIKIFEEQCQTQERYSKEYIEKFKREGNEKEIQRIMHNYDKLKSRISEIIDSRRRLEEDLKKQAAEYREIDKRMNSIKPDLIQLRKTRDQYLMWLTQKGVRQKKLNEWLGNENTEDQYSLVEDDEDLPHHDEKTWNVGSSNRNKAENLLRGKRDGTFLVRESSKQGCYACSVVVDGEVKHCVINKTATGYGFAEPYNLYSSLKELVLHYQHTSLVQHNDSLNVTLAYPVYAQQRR

This experiment has as its target H1047R PIK3CA enzyme (Homo sapiens, UniProt P42336, H1047R). Nature of the experiment: ADP-Glo Biochemical PIK3CA Kinase Assay.
In turn, `Cn1c(=O)[nH]c2ccc(-c3cc(NC(=O)c4cc(F)cc(C(F)(F)F)c4)c4c(c3)C(=O)NC4c3cc(F)ccc3Cl)cc21` (stereo not shown) [Compound I-1044] registered an IC50 of at most 100 nM. As for `O=C(Nc1cc(-c2cccc3cccnc23)cc2c1C(c1cc(F)ccc1Cl)NC2=O)c1cc(F)cc(C(F)(F)F)c1` (stereo not shown) [Compound I-1045], the IC50 was at most 100 nM. For `O=C(Nc1ccc(F)cc1C(F)(F)F)Nc1cc(Br)cc2c1C(c1cc(F)ccc1Cl)NC2=O` (stereo not shown) [Compound I-1050], the IC50 lay in the range of 100 to 500 nM. For `N#Cc1ccc(C(F)(F)F)c(NC(=O)Nc2cc(Br)cc3c2C(c2cc(F)ccc2Cl)NC3=O)c1` (stereo not shown) [Compound I-1051], the IC50 lay within 1000 to 10000 nM. As to `O=C(Nc1cc(Oc2ccncn2)cc2c1C(c1cc(F)ccc1Cl)NC2=O)c1cc(F)cc(C(F)(F)F)c1` (stereo not shown) [Compound I-1052], the IC50 lay within 100 to 500 nM. The compound `O=C(Nc1cc(-c2ccc3ncnn3c2)cc2c1[C@H](c1cc(Cl)ccc1Cl)NC2=O)c1cc(F)cc(C(F)(F)F)c1` [Compound I-1053] had an IC50 of 500 to 1000 nM.

For `O=C1NC(c2cc(F)ccc2Cl)c2c(Nc3noc4ccccc34)cc(Br)cc21` (stereo not shown) [Compound I-1058], the IC50 was 10000 to 100000 nM. In turn, `O=C(Nc1cc(-c2ccc3ncnn3c2)cc2c1[C@H](c1cc(F)c(F)cc1Cl)NC2=O)c1cc(F)cc(C(F)(F)F)c1` [Compound I-1059] yielded an IC50 of 1000 to 10000 nM.

Compound `O=C1NC(c2cc(F)ccc2Cl)c2c(Nc3nsc4ccccc34)cc(Br)cc21` (stereo not shown) [Compound I-1060] registered an IC50 of 10000 to 100000 nM. `O=C(Nc1cc(-n2cccn2)cc2c1[C@@H](c1cc(F)ccc1Cl)NC2=O)c1cc(F)cc(C(F)(F)F)c1` [Compound I-1070] returned an IC50 of 1000 to 10000 nM.

As to `Cn1ccc(Nc2cc(NC(=O)c3cc(F)cc(C(F)(F)F)c3)c3c(c2)C(=O)N[C@@H]3c2cc(F)ccc2Cl)n1` [Compound I-1072], the IC50 is 500 to 1000 nM. `CC12CC3CC(C)(C1)CC(C(=O)Nc1cccc4c1C(c1cc(F)ccc1Cl)NC4=O)(C3)C2` (stereo not shown) [Compound I-1074] yielded an IC50 of 100 to 500 nM. On to `O=C(Nc1cc(Oc2ccccn2)cc2c1C(c1cc(F)ccc1Cl)NC2=O)c1cc(F)cc(C(F)(F)F)c1` (stereo not shown) [Compound I-1077], for which the IC50 was in the range of 100 to 500 nM. In the case of `O=C(Nc1cc(-c2cn[nH]c2)cc2c1[C@@H](c1cc(F)ccc1Cl)NC2=O)c1cc(F)cc(C(F)(F)F)c1` [Compound I-1079], the IC50 is at most 100 nM.

As for `O=C(Nc1cc(-c2cscn2)cc2c1[C@@H](c1cc(F)ccc1Cl)NC2=O)c1cc(F)cc(C(F)(F)F)c1` [Compound I-1085], the IC50 lay within 1000 to 10000 nM.

For `N#CCc1cc(NC(=O)c2cc(F)cc(C(F)(F)F)c2)c2c(c1)C(=O)N[C@@H]2c1cc(F)ccc1Cl` [Compound I-1087], the IC50 lay in the range of 100 to 500 nM. Regarding `Nc1cc(-c2cc(NC(=O)c3cc(F)cc(C(F)(F)F)c3)c3c(c2)C(=O)NC3c2cc(F)ccc2Cl)ncn1` (stereo not shown) [Compound I-1089], the IC50 was at most 100 nM. To `Nc1nccc(-c2cc(NC(=O)c3cc(F)cc(C(F)(F)F)c3)c3c(c2)C(=O)NC3c2cc(F)ccc2Cl)n1` (stereo not shown) [Compound I-1090] belongs at most 100 nM; to `Cc1ncc(-c2cc(NC(=O)c3cc(F)cc(C(F)(F)F)c3)c3c(c2)C(=O)NC3c2cc(F)ccc2Cl)c(C)n1` (stereo not shown) [Compound I-1092], 100 to 500 nM. `O=C(Nc1cc(-c2cncnc2)cc2c1[C@@H](c1cc(F)ccc1Cl)NC2=O)c1cc(F)cc(C(F)(F)F)c1` [Compound I-1094] came in with an IC50 of 500 to 1000 nM. The result for `CC(C)(O)Cn1cc(-c2cc(NC(=O)c3cc(F)cc(C(F)(F)F)c3)c3c(c2)C(=O)N[C@@H]3c2cc(F)ccc2Cl)cn1` [Compound I-1096] reads 10000 to 100000 nM; that for `O=C1NC(c2cc(F)ccc2Cl)c2c(N/C(=N\O)c3cc(F)cc(C(F)(F)F)c3)cccc21` (stereo not shown) [Compound I-1100], at most 100 nM; that for `COc1cnc(-c2cc(NC(=O)c3cc(F)cc(C(F)(F)F)c3)c3c(c2)C(=O)NC3c2cc(F)ccc2Cl)cn1` (stereo not shown) [Compound I-1103], at most 100 nM. For the compound `Nc1ncncc1-c1cc(NC(=O)c2cc(F)cc(C(F)(F)F)c2)c2c(c1)C(=O)NC2c1cc(F)ccc1Cl` (stereo not shown) [Compound I-1106], the IC50 is at most 100 nM. The compound `O=C1N[C@H](c2cc(F)ccc2Cl)c2c(Nc3nccc4c(C(F)(F)F)cc(F)cc34)cc(Br)cc21` [Compound I-1110] had an IC50 of 1000 to 10000 nM. Consider `N#CC1(COc2cc(NC(=O)c3cc(F)cc(C(F)(F)F)c3)c3c(c2)C(=O)NC3c2cc(F)ccc2Cl)CC1` (stereo not shown) [Compound I-1113], for which the IC50 is at most 100 nM. Compound `O=C1NC(c2cc(F)ccc2Cl)c2c(NC(=O)c3cc(C(F)(F)F)cc(F)c3C3(O)COC3)cccc21` (stereo not shown) [Compound I-1114] came in with an IC50 of 1000 to 10000 nM. The compound `O=C(Nc1cc(Nc2ccno2)cc2c1C(c1cc(F)ccc1Cl)NC2=O)c1cc(F)cc(C(F)(F)F)c1` (stereo not shown) [Compound I-1115] returned an IC50 of at most 100 nM. `O=C1NC(c2cc(F)ccc2Cl)c2c(Nc3ncc(C(F)(F)F)cc3F)cc(Br)cc21` (stereo not shown) [Compound I-1118] came in with an IC50 of 500 to 1000 nM.

Regarding `O=C(Nc1cc(Br)cc2c1C(c1cc(F)ccc1Cl)NC2=O)c1cc(F)cc(CF)c1` (stereo not shown) [Compound I-1119], the IC50 fell in the range of 500 to 1000 nM. `Cn1cc(Oc2cc(NC(=O)c3cc(F)cc(C(F)(F)F)c3)c3c(c2)C(=O)NC3c2cc(F)ccc2Cl)cn1` (stereo not shown) [Compound I-1120]: the IC50 was 1000 to 10000 nM. `Cc1ncc(-c2cc(NC(=O)c3cc(F)cc(C(F)(F)F)c3)c3c(c2)C(=O)NC3c2cc(F)ccc2Cl)c(N)n1` (stereo not shown) [Compound I-1122] showed an IC50 of at most 100 nM. Regarding `N#Cc1cn(-c2cc(NC(=O)c3cc(F)cc(C(F)(F)F)c3)c3c(c2)C(=O)NC3c2cc(F)ccc2Cl)cn1` (stereo not shown) [Compound I-1127], the IC50 was at most 100 nM. In the case of `O=C(Nc1cc(-n2cncc2F)cc2c1C(c1cc(F)ccc1Cl)NC2=O)c1cc(F)cc(C(F)(F)F)c1` (stereo not shown) [Compound I-1128], the IC50 is at most 100 nM. To `N#CC1CC(Oc2cc(NC(=O)c3cc(F)cc(C(F)(F)F)c3)c3c(c2)C(=O)NC3c2cc(F)ccc2Cl)C1` (stereo not shown) [Compound I-1129] belongs at most 100 nM; to `N#Cc1cc(Oc2cc(NC(=O)c3cc(F)cc(C(F)(F)F)c3)c3c(c2)C(=O)NC3c2cc(F)ccc2Cl)ccn1` (stereo not shown) [Compound I-1130], at most 100 nM; to `O=C(Nc1cc(OC2COC2)cc2c1C(c1cc(F)ccc1Cl)NC2=O)c1cc(F)cc(C(F)(F)F)c1` (stereo not shown) [Compound I-1131], at most 100 nM. The compound `O=C(Nc1cc(OC2CC(O)C2)cc2c1C(c1cc(F)ccc1Cl)NC2=O)c1cc(F)cc(C(F)(F)F)c1` (stereo not shown) [Compound I-1132] displayed an IC50 of 100 to 500 nM. The result for `O=C1NC(c2cc(F)ccc2Cl)c2c(NC(=O)C34CC5CC(CC(F)(C5)C3)C4)cccc21` (stereo not shown) [Compound I-1133] reads 500 to 1000 nM; that for `O=C(Nc1cc(C(O)COCCO)cc2c1C(c1cc(F)ccc1Cl)NC2=O)c1cc(F)cc(C(F)(F)F)c1` (stereo not shown) [Compound I-1134], 100 to 500 nM.

In turn, `O=C(Nc1cc(OC2CCOCC2)cc2c1C(c1cc(F)ccc1Cl)NC2=O)c1cc(F)cc(C(F)(F)F)c1` (stereo not shown) [Compound I-1135] displayed an IC50 of at most 100 nM.

On to `Cn1nccc1-c1cc(NC(=O)c2cc(F)cc(C(F)(F)F)c2)c2c(c1)C(=O)N[C@H]2c1cc(F)ccc1Cl` [Compound I-1136], for which the IC50 is at most 100 nM.

For the compound `Cn1nccc1-c1cc(NC(=O)c2cc(F)cc(C(F)(F)F)c2)c2c(c1)C(=O)N[C@@H]2c1cc(F)ccc1Cl` [Compound I-1137], the half-maximal inhibitory concentration (IC50) was 1000 to 10000 nM.
